The test system of series [1] is BALB/c mice. Kind of series: Toxicity (LD50) after intraperitoneal injection. It is filed as in vivo. The following applies: mg/ml injected vaccine formulation. The procedure:
The efficacy and side effects (such as toxicity, carcinogenic properties, and autoimmunogenic properties) of phytol and reduced phytol or phytanol (H-phytol) as adjuvants were compared with those of other known adjuvants that serve as the gold standard. Groups of 8-12 week old and gender matched BALB/c mice (n=21) were injected intraperitoneally with phytol (25-50 μl=20-40 mg/ml injected vaccine formulation) to determine toxicity. Similar studies were done with reduced phytol (phytanol) using 11 BALB/c mice. LD50 for phytol is 40 mg/ml and for phytanol >40 mg/ml. For comparison, equivalent concentrations/volumes of other Freund's adjuvants, a mineral oil pristane and a control (phosphate buffered saline) were tested for toxicity in terms of splenomegaly and local granuloma.

Series [2] deals with BALB/c mice. Kind of series: Toxicity in terms of splenomegaly and local granuloma. It is filed as in vivo. The procedure: with adjuvants: A, (PBS); B, […]; C, Incomplete Freund's adjuvant (IFA); D, phytol; E, Complete Freund's adjuvant (CFA); and F, reduced phytol (phytanol).
The efficacy and side effects (such as toxicity, carcinogenic properties, and autoimmunogenic properties) of phytol and reduced phytol or phytanol (H-phytol) as adjuvants were compared with those of other known adjuvants that serve as the gold standard. Groups of 8-12 week old and gender matched BALB/c mice (n=21) were injected intraperitoneally with phytol (25-50 μl=20-40 mg/ml injected vaccine formulation) to determine toxicity. Similar studies were done with reduced phytol (phytanol) using 11 BALB/c mice. […].

For a further series, the system named is DNA. The experiment in a line: Autoimmune reactivity assessment (anti-DNA antibody response). It is filed as in vivo, mice. From the text:
In each set of experiments, groups of 5 mice were primed with an environmental antigen phthalate (Lim and Ghosh, Immunology, 110:482-492, 2003) as a conjugate (mg/ml) with keyhole limpet hemocyanin (KLH) in different adjuvants as shown in FIG. 5.

The test system of the next series is 2C3 B-cell lymphoma. Kind of series: Induction of tumor-specific cytotoxic T cells (51Cr-release CTL assay). It is filed as in vivo. To be noted: BALB/c mice, intraperitoneal adjuvant, live 2C3 tumor challenge, FIG. 8. The procedure: A number of mice (BALB/c mice) were divided into four groups of six mice each. Each group was treated with intraperitoneal injections of one of […] adjuvant preparations. The adjuvant preparations were selected from IFA, phytol, and phytanol. A control group was injected intraperitoneally with PBS. Five days after the initial injections, each of the mice was injected with a live tumor challenge (5×10^6 of 2C3 B-cell lymphoma). Splenocytes were obtained form the tumor-challenged mice at the eighth day after the initial injections. The collected splenocytes were stimulated with killed 2C3 cells in vitro for five days. Effector cells were harvested from this preparation after five days of incubation. The effector cells were used in the 51Cr-release cytotoxic T lymphocyte (CTL) assay according to the procedure published in Chakrabarti D. and Ghosh S. K.: Cellular Immunology 144:445-464, 1996; Santra S. and Ghosh S. K.: cancer Immunol. Immunotherpy, 44:291-300, 1997; Laxmanan S., Stuart G. W. and Ghosh S. K. Ghosh, Cancer Immunol. Immunotherapy, 50:437-444, 2001; So-Yon Lim and Swapan K. Ghosh, Immunology, 110:482-492, 2003.

A further series has as its system phthalate. Kind of series: Anti-phthalate antibody response by ELISA on phthalate-BSA coated plates. The series is classed as in vivo. To be noted: BALB/c mice primed intraperitoneally with phthalate-KLH emulsified in adjuvant, boosters at 10-day intervals, FIG. 6. The procedure:
Experimental BALB/c mice (n=6) were grouped and primed intraperitoneally with phthalate-KLH conjugates emulsified in each adjuvant. Control groups of mice were immunized with phosphate buffered saline (PBS). Boosters were given at 10-day intervals. The mice were bled through retro-orbital veins five days after each immunization. (reference describing this type of experiments: So-Yon Lim and Swapan K. Ghosh, Immunology, 110:482-492, 2003)
ELISA was performed to assess anti-phthalate humoral responses on phthalate-BSA coated plates.

In turn, `C/C(=C\CO)CCC[C@H](C)CCC[C@H](C)CCCC(C)C` [phytol] yielded an LD50 in the series with BALB/c mice [1] of 40 mg/mL. In addition, the granuloma entry in the series on BALB/c mice [2] (BALB/c mice, local granuloma) is given as “milder than CFA”. In addition, the splenomegaly result in the series with BALB/c mice [2] (BALB/c mice, spleens, FIGS. 3A-3F) was “comparable splenomegaly”; with BALB/c mice [2] (BALB/c mice, spleens, FIGS. 3A-3F, listed as Phytol) it was “milder than CFA”. Besides, the “anti-DNA response (autoimmune response)” value with DNA (mice primed with phthalate-KLH in the adjuvant, FIG. 5) is recorded as “statistically insignificant anti-DNA response”. Moreover, the “induction of tumor-specific killer T cells” value with 2C3 B-cell lymphoma is given as “induction of tumor-specific killer T cells”.
In turn, `CC(C)CCC[C@@H](C)CCC[C@@H](C)CCCC(C)CCO` (stereo partly drawn) [phytanol, 3,7,11,15-tetramethyl-1-hexadecanol] showed an LD50 with BALB/c mice [1] of over 40 mg/mL. In addition, in the series with BALB/c mice [2] (mouse, in vivo), the granuloma entry is “no granuloma” and the splenomegaly result is listed as “none”. For the same compound, the “anti-DNA response (autoimmune response)” value with DNA (mouse, in vivo) is recorded as “statistically insignificant anti-DNA response”. For the same compound, the anti-phthalate humoral response result in the series on phthalate is “better than commonly used CFA/IFA and is as good as commercially available Ribi Adjuvant system (RAS)”. The “induction of tumor-specific killer T cells” value with 2C3 B-cell lymphoma is on record as “induction of tumor-specific killer T cells”.

The values above are taken from patent US8088395B2, “Phytol derived immunoadjuvants and their use in vaccine formulations” (priority 2004, dated 2012).
